Measurements taken from patent publication US11584734B2, “Tricyclic compounds as histone methyltransferase inhibitors” (GLOBAL BLOOD THERAPEUTICS, INC., priority 2017, dated 2023).

biological target: T1, G9a (Homo sapiens, UniProt Q96KQ7); assay: G9a AlphaLISA enzymatic activity assay; assay type: biochemical; settings: negative log of IC50 in molar, 0.15 nM G9a, 15 uM S-adenosyl-methionine, 100 nM biotinylated histone 3 peptide (1-21)
T1 sequence (Q96KQ7 1-1210): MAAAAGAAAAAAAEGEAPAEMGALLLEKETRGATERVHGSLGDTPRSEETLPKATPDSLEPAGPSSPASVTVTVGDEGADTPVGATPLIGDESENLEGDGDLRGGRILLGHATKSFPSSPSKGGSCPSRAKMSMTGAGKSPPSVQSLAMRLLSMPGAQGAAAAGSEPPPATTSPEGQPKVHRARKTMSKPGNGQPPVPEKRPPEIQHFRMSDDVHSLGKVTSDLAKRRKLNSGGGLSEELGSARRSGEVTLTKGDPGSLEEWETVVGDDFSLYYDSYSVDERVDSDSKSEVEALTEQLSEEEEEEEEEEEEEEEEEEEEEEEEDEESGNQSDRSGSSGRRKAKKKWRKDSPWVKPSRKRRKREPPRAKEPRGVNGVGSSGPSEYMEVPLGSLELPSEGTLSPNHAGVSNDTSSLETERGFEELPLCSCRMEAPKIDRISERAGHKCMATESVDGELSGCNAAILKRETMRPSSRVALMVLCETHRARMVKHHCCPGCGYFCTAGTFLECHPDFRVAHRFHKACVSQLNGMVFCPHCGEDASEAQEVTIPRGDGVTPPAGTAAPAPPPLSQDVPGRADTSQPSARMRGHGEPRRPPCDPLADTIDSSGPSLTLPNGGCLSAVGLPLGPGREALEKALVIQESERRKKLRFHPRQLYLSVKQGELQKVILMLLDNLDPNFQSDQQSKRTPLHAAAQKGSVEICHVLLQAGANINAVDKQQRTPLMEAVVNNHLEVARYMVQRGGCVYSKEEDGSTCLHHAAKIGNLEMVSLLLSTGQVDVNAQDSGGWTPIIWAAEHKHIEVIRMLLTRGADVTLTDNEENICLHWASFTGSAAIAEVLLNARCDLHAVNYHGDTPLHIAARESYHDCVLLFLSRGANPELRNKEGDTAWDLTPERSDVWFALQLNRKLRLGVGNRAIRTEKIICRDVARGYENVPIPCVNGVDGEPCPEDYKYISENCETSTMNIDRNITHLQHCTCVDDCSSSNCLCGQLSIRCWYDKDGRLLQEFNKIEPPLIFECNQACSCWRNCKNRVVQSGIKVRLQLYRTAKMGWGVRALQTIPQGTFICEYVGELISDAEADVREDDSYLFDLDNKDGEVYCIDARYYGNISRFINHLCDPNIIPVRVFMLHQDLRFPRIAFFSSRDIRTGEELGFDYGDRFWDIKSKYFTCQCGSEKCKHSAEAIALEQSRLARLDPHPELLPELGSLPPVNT
From the text: The G9a AlphaLISA assay was used to detect the methyl modifications of a biotinylated histone H3 peptide by the compounds. These modifications are done by the histone methyl transferase activity of the G9a enzyme. The assay consists of reading a chemiluminescent signal at 615 nm; this signal is generated by a laser excitation at 680 nm that transfers a reactive singlet oxygen between the donor beads and acceptor beads. Donor beads are streptavidin conjugated and bind to the biotin on the peptide. Acceptor beads are conjugated with an antibody that recognizes the specific G9a methyl mark on the peptide. If there is a methyl mark on the peptide, the acceptor beads will bind to the peptide. Upon binding, the acceptor beads will be in close proximity (<200 nm) of the donor beads and when the donor beads are excited, the transfer of the oxygen can occur and a strong signal will be generated. If there is no methyl mark, the interaction between beads will not occur and signal will be at background levels.
For the assay, the following buffer was used to set up reactions: 50 mM Tris-HCl pH9, 50 mM NaCl, 0.01% Tween-20 and 1 mM DTT (added fresh prior to starting the reactions). […] The reaction is incubated at rt for 1 hour and subsequently quenched by the addition of the acceptor beads (anti-H3k9me2 AlphaLISA acceptor beads, PerkinElmer #AL117) at a final concentration of 20 ug/mL. The acceptor beads are incubated for 1 hour. After 1 hour, the donor beads are added at a final concentration of 20 ug/mL (Alpha Streptavidin donor beads, PerkinElmer #6760002). Donor beads are incubated for 0.5 hours. Both donor and acceptor beads are resuspended in AlphaLISA 5X Epigenetics Buffer 1 Kit (PerkinElmer #AL008) prior to addition to the reaction. All manipulations and incubations with the donor and acceptor beads are done in subdued light. Signal is detected in an EnVision plate reader in Alpha mode. See ACS Med Chem Lett. 2014; 5(2):205-9.
Percent inhibition was calculated for each compound dilution and the concentration that produced 50% inhibition was calculated. This value is presented as the pIC50, which is the negative log of the IC50 value in molar.

Structure (SMILES)	IC50 [nM]
COC[C@H](C)Nc1c2c(nc3cc(OCCCN4CCCC4)c(OC)cc13)CCCCC2 [Example 38, 2-methoxy-N-[(2S)-1-methoxypropan-2-yl]-3-[3-(pyrrolidin-1-yl)propoxy]-6H,7H,8H,9H,10H-cyclohepta[b]quinolin-11-amine]	214
COc1cc2c(NC(C)C)c3c(nc2cc1OCCCN1CCCC1)CCC3(C)C [Example 22, 7-methoxy-1,1-dimethyl-N-(propan-2-yl)-6-[3-(pyrrolidin-1-yl)propoxy]-1H,2H,3H-cyclopenta[b]quinolin-9-amine]	174
CNc1c2c(nc3cc(OCCCN4CCCC4)c(OC(F)(F)F)cc13)CCC2 [Example 48, N-methyl-6-[3-(pyrrolidin-1-yl)propoxy]-7-(trifluoromethoxy)-1H,2H,3H-cyclopenta[b]quinolin-9-amine]	603
CNc1c2c(nc3cc(OCCCN4CCCC4)c(OC)cc13)C1CCCC2C1 (stereo not shown) [Example 36, 7-methoxy-N-methyl-6-[3-(pyrrolidin-1-yl)propoxy]-3-azatetracyclo[10.3.1.0^{2,11}.0^{4,9}]hexadeca-2,4,6,8,10-pentaen-10-amine]	19.5
COCCNc1c2c(nc3cc(OCCCN4CCCC4)c(OC)cc13)CC(C)(C)C2 [Example 8, 7-methoxy-N-(2-methoxyethyl)-2,2-dimethyl-6-[3-(pyrrolidin-1-yl)propoxy]-1H,2H,3H-cyclopenta[b]quinolin-9-amine]	51.3
CNc1c2c(nc3cc(OCCCNC(C)=O)c(OC)cc13)CCC2 [Example 46, N-(3-{[7-methoxy-9-(methylamino)-1H,2H,3H-cyclopenta[b]quinolin-6-yl]oxy}propyl)acetamide]	3090
CCOCCNc1c2c(nc3cc(COCCN4CCCC4)c(OC)cc13)CCC2 [Example 41, N-(2-ethoxyethyl)-7-methoxy-6-{[2-(pyrrolidin-1-yl)ethoxy]methyl}-1H,2H,3H-cyclopenta[b]quinolin-9-amine]	33.9
COc1cc2c(NC[C@H]3CCCO3)c3c(nc2cc1OCCCN1CCCC1)CCC3 [Example 18, 7-methoxy-N-{[(2R)-oxolan-2-yl]methyl}-6-[3-(pyrrolidin-1-yl)propoxy]-1H,2H,3H-cyclopenta[b]quinolin-9-amine]	21.9
CCNc1c2c(nc3cc(OCCCN4CCCC4)c(OC(F)(F)F)cc13)CCC2 [Example 49, N-ethyl-6-[3-(pyrrolidin-1-yl)propoxy]-7-(trifluoromethoxy)-1H,2H,3H-cyclopenta[b]quinolin-9-amine]	646
CNc1c2c(nc3cc(OCCCNS(C)(=O)=O)c(OC)cc13)CCC2 [Example 62, N-(3-{[7-methoxy-9-(methylamino)-1H,2H,3H-cyclopenta[b]quinolin-6-yl]oxy}propyl)methanesulfonamide]	933
COc1cc2c(NCCCOC(C)C)c3c(nc2cc1OCCCN1CCCC1)CCC3 [Example 17, 7-methoxy-N-[3-(propan-2-yloxy)propyl]-6-[3-(pyrrolidin-1-yl)propoxy]-1H,2H,3H-cyclopenta[b]quinolin-9-amine]	19.5

The next lines start with the values.

IC50 [nM]	Structure (SMILES)
1550	COc1cc2c(NCC3CC3)c3c(nc2cc1OCC1(CN2CCCC2)COC1)CCC3 [Example 68, N-(cyclopropylmethyl)-7-methoxy-6-({3-[(pyrrolidin-1-yl)methyl]oxetan-3-yl}methoxy)-1H,2H,3H-cyclopenta[b]quinolin-9-amine]
813	CNc1c2c(nc3cc(OCCCN(C)CCF)c(OC)cc13)CCC2 [Example 55, 6-{3-[(2-fluoroethyl)(methyl)amino]propoxy}-7-methoxy-N-methyl-1H,2H,3H-cyclopenta[b]quinolin-9-amine]
6.03	COc1cc2c(NC[C@@H]3CCOC3)c3c(nc2cc1OCCCN1CCCC1)CCC3 [Example 29, 7-methoxy-N-{[(3S)-oxolan-3-yl]methyl}-6-[3-(pyrrolidin-1-yl)propoxy]-1H,2H,3H-cyclopenta[b]quinolin-9-amine]
17.4	CCOCCCNc1c2c(nc3cc(OCCCN4CCCC4)c(OC)cc13)CCC2 [Example 11, N-(3-ethoxypropyl)-7-methoxy-6-[3-(pyrrolidin-1-yl)propoxy]-1H,2H,3H-cyclopenta[b]quinolin-9-amine]
166	COc1cc2c(NCC3CC3)c3c(nc2cc1OC[C@H](C)CN1CCCC1)CCC3 [Example 44, N-(cyclopropylmethyl)-7-methoxy-6-[(2R)-2-[(pyrrolidin-1-yl)methyl]propoxy]-1H,2H,3H-cyclopenta[b]quinolin-9-amine]
40.7	CNc1c2c(nc3cc(OCCCN(C)C)c(OC)cc13)CCC2 [Example 71, 6-[3-(dimethylamino)propoxy]-7-methoxy-N-methyl-1H,2H,3H-cyclopenta[b]quinolin-9-amine]
97.7	FC(F)Oc1cc2c(NCC3CC3)c3c(nc2cc1OCCCN1CCCC1)CCC3 [Example 42, N-(cyclopropylmethyl)-7-(difluoromethoxy)-6-[3-(pyrrolidin-1-yl)propoxy]-1H,2H,3H-cyclopenta[b]quinolin-9-amine]
1350	CNc1c2c(nc3cc(OCCCN4C5CCC4CC5)c(OC)cc13)CCC2 [Example 47, 6-(3-{7-azabicyclo[2.2.1]heptan-7-yl}propoxy)-7-methoxy-N-methyl-1H,2H,3H-cyclopenta[b]quinolin-9-amine]
1950	COc1cc2c(NCC3CC3)c3c(nc2cc1OCCCNS(N)(=O)=O)CCC3 [Example 72, N-[3-({9-[(cyclopropylmethyl)amino]-7-methoxy-1H,2H,3H-cyclopenta[b]quinolin-6-yl}oxy)propyl]aminosulfonamide]
26.3	COc1cc2c(NC[C@@H](C)OC)c3c(nc2cc1OCCCN1CCCC1)CCC3 [Example 14, 7-methoxy-N-[(2R)-2-methoxypropyl]-6-[3-(pyrrolidin-1-yl)propoxy]-1H,2H,3H-cyclopenta[b]quinolin-9-amine]
18.2	COc1cc2c(NCC3CC3)c3c(nc2cc1OCCOCCN(C)C)CCC3 [Example 63, N-(cyclopropylmethyl)-6-{2-[2-(dimethylamino)ethoxy]ethoxy}-7-methoxy-1H,2H,3H-cyclopenta[b]quinolin-9-amine]
31.6	COc1cc2c(NCCOC(C)C)c3c(nc2cc1OCCCN1CCCC1)CCC3 [Example 13, 7-methoxy-N-[2-(propan-2-yloxy)ethyl]-6-[3-(pyrrolidin-1-yl)propoxy]-1H,2H,3H-cyclopenta[b]quinolin-9-amine]
1050	CCNc1c2c(nc3cc(OCCCN(C)CCF)c(OC)cc13)CCC2 [Example 56, N-ethyl-6-{3-[(2-fluoroethyl)(methyl)amino]propoxy}-7-methoxy-1H,2H,3H-cyclopenta[b]quinolin-9-amine]
8.32	CCCOCCCNc1c2c(nc3cc(OCCCN4CCCC4)c(OC)cc13)CCC2 [Example 12, 7-methoxy-N-(3-propoxypropyl)-6-[3-(pyrrolidin-1-yl)propoxy]-1H,2H,3H-cyclopenta[b]quinolin-9-amine]
